Here are results for 7 compounds from publication PMC9964602, “Myxinidin-Derived Peptide against Biofilms Caused by Cystic Fibrosis Emerging Pathogens” (International Journal of Molecular Sciences, 2023).

Molecules are shown by their SMILES. Like-named read-outs stand apart in the source and are kept apart here. Where a SMILES comes first, the peptide text is derived from it. [ ]: non-standard residue; d: D form. Dap = NC[C@H](N)C(=O)O; Aib = CC(C)(N)C(=O)O

A short description of one data set: in vitro. The format is in vitro ADME, bovine. The settings on record: serum. The protocol:
The proteolytic stability of WMR and WMR-4 were determined in bovine serum acquired from ThermoFisher Scientific (Milan, Italy). Peptides were dissolved in sterile water to prepare stock solutions, then incubated with 50% of bovine serum to obtain a final concentration of 200 μM [69]. The mixture peptide/serum was incubated at 37 ± 1 °C for different times (0.25, 0.50, 1, 2, 3, 4, 5, and 16 h). At each pre-established time, an aliquot of reaction was taken, and acetonitrile was added to favor the precipitation of serum proteins. Then, the solution was cooled at 4 °C and centrifuged for 15 min at 13,000× g rpm. The supernatant was analyzed by HPLC in a Phenomenex Jupiter 4 μm Proteo 90 Å 250 × 21.20 mm column with a linear gradient of solvent B (0.1% TFA in acetonitrile) in solvent A (0.1% TFA in water) from 5 to 70% in 20 min with UV detection at 210 nm and a flow rate of 1 mL/min.

A further data set relates to A. xylosoxidans DSM 2402. Briefly: microbe, parasite or virus in culture. It is filed as cell-based, Achromobacter xylosoxidans. The protocol:
(§1) Candida albicans ATCC 90028, Achromobacter xylosoxidans DSM 2402, and Stenotrophomonas maltophilia DSM 50170 were used in this study. Microbial strains were grown in Tryptone Soya Broth (TSB, VWR chemicals, Leuven, Belgium), supplemented with 0.1% glucose only for C. albicans at 37 °C overnight. Then, cells were harvested by centrifugation at 5000 rpm, 4 °C for 10 min, followed by washing in Phosphate Buffered Saline (PBS, Oxoid Ltd., Basingstoke, UK) three times. Standardized 1 × 10^6 CFU mL^-^1 inoculum was used in the next experiments. The minimum inhibitory concentrations (MIC) of WMR-4 against C. albicans, A. xylosoxidans, and S. maltophilia were determined using a broth microdilution method accord-ing to CLSI M27-A3 and […]-A9 guidelines. Concentrations of WMR-4 from 0.5 to 50 μM were added to wells of a 96-well microplate containing 1 × 10^6 CFU mL^-1 cells. Fluconazole at a concentration range from 1 to 50 μM and meropenem at a concentration range from 10 to 200 μM were used as control. The plate was incubated at 37 °C for 24/48 h due to poor growth after 24 h for the two bacterial species. Next, the absorbance at 590 nm was read using a microplate reader (Synergy H4; BioTek Instruments, Agilent Technologies, Winooski, VT, USA). MIC value was defined as a lowest concentration of WMR and analogues able to inhibit total microbial growth.

In the next data set the test system is S. maltophilia DSM 50170. The data set can be described thus: microbe, parasite or virus in culture. It is filed as cell-based, Stenotrophomonas maltophilia. The protocol:
as §1

The subject of the next data set is C. albicans ATCC 90028. The format is cell-based, Candida albicans. Conditions: ATCC 90028, 48 h. The method, then: as §1

Turning to `CC[C@H](C)[C@H](NC(=O)CNC(=O)[C@@H](N)Cc1c[nH]c2ccccc12)C(=O)N[C@@H](CCCNC(=N)N)C(=O)N[C@@H](CCCNC(=N)N)C(=O)N[C@H](C(=O)N[C@@H](CC(C)C)C(=O)N[C@@H](CCCCN)C(=O)N[C@@H](Cc1ccc(O)cc1)C(=O)NCC(=O)N[C@@H](CCCCN)C(=O)N[C@@H](CCCNC(=N)N)C(=O)N[C@@H](CO)C(=O)N[C@@H](CCCCN)C(N)=O)[C@@H](C)CC` [WMR] (H-WGIRRILKYGKRSK-NH2), in “in vitro”, the fraction remaining (usually what is left of the initial amount, in per cent) at 0.25 h, 200 μM was 75%; the share remaining at 0.5 h, 200 μM amounted to 75%; the amount remaining at 1 h, 200 μM turned out to be 68%; the share remaining at 2 h, 200 μM is 53%. Further, in “in vitro”, the amount remaining at 3 h, 200 μM was 36% and the share remaining at 5 h, 200 μM was determined as 20%. Also, the MIC with A. xylosoxidans DSM 2402 (DSM 2402, 48 h) turned out to be 50 µM. Moreover, the MIC in the data set on S. maltophilia DSM 50170 (DSM 50170, 48 h) was 50 µM.
Consider `CC[C@H](C)[C@H](NC(=O)[C@H](CCCNC(=N)N)NC(=O)[C@H](CCCNC(=N)N)NC(=O)[C@@H](NC(=O)C(C)(C)NC(=O)[C@@H](N)Cc1c[nH]c2ccccc12)[C@@H](C)CC)C(=O)N[C@@H](CC(C)C)C(=O)N[C@@H](CCCCN)C(=O)N[C@@H](Cc1ccc(O)cc1)C(=O)NCC(=O)N[C@@H](CCCCN)C(=O)N[C@@H](CCCNC(=N)N)C(=O)N[C@@H](CO)C(=O)N[C@@H](CCCCN)C(N)=O` [WMR-3] (H-W[Aib]IRRILKYGKRSK-NH2), for which the MIC in the data set on A. xylosoxidans DSM 2402 (DSM 2402, 48 h) is over 50 µM; in the data set with S. maltophilia DSM 50170 (DSM 50170, 48 h), over 50 µM.
Turning to `C[C@@H](O)[C@H]1C(=O)N2C(C(=O)O)=C(S[C@@H]3CN[C@H](C(=O)N(C)C)C3)[C@H](C)[C@H]12` [MEM, meropenem, reference compound], the MIC with A. xylosoxidans DSM 2402 (Achromobacter xylosoxidans, DSM2402, A. xylosoxidans DSM 2402, control drug, value outside parentheses, read-out: MIC) was 65 µg/mL; in the data set with S. maltophilia DSM 50170 (Stenotrophomonas maltophilia, DSM50170, S. maltophilia DSM 50170, control drug, value outside parentheses, read-out: MIC) it was 130 µg/mL.
Take `CC[C@H](C)[C@H](NC(=O)CNC(=O)[C@@H](N)Cc1c[nH]c2ccccc12)C(=O)N[C@@H](CCCNC(=N)N)C(=O)N[C@@H](CCCNC(=N)N)C(=O)N[C@H](C(=O)N[C@@H](CC(C)C)C(=O)N[C@@H](CCCCN)C(=O)N[C@@H](Cc1ccc(O)cc1)C(=O)NCC(=O)N[C@@H](CCCCN)C(=O)N[C@@H](CCCNC(=N)N)C(=O)N[C@@H](CO)C(=O)N[C@@H](CN)C(N)=O)[C@@H](C)CC` [WMR-5] (H-WGIRRILKYGKRS[Dap]-NH2): the MIC in the data set on A. xylosoxidans DSM 2402 (DSM 2402, 48 h) was 25 µM; with S. maltophilia DSM 50170 (DSM 50170, 48 h), 25 µM.
On to `CC[C@H](C)[C@H](NC(=O)CNC(=O)[C@@H](N)Cc1c[nH]c2ccccc12)C(=O)N[C@@H](CCCNC(=N)N)C(=O)N[C@@H](CCCNC(=N)N)C(=O)N[C@H](C(=O)N[C@@H](CC(C)C)C(=O)N[C@@H](CCCCN)C(=O)N[C@@H](Cc1ccc(O)cc1)C(=O)NCC(=O)N[C@@H](CCCCN)C(=O)N[C@@H](CCCNC(=N)N)C(=O)N[C@H](CO)C(=O)N[C@@H](CCCCN)C(N)=O)[C@@H](C)CC` [WMR-2] (H-WGIRRILKYGKR[dS]K-NH2), for which the MIC in the data set on A. xylosoxidans DSM 2402 (DSM 2402, 48 h) is over 50 µM; in the data set with S. maltophilia DSM 50170 (DSM 50170, 48 h), over 50 µM.
On to `CC[C@H](C)[C@H](NC(=O)[C@H](CCCNC(=N)N)NC(=O)[C@H](CCCNC(=N)N)NC(=O)[C@@H](NC(=O)C(C)(C)NC(=O)[C@@H](N)Cc1c[nH]c2ccccc12)[C@@H](C)CC)C(=O)N[C@@H](CC(C)C)C(=O)N[C@@H](CCCCN)C(=O)N[C@@H](Cc1ccc(O)cc1)C(=O)NCC(=O)N[C@@H](CCCCN)C(=O)N[C@@H](CCCNC(=N)N)C(=O)N[C@H](CO)C(=O)N[C@H](CCCCN)C(N)=O` [WMR-4] (H-W[Aib]IRRILKYGKR[dS][dK]-NH2), for which the share remaining at 5 h, 200 μM in “in vitro” was determined as 70%. This compound registered a share remaining at 16 h, 200 μM in the data set “in vitro” of about 30%. The MIC in the data set with A. xylosoxidans DSM 2402 (DSM 2402, 48 h) stood at 25 µM; in the data set on C. albicans ATCC 90028, 50 µM; with S. maltophilia DSM 50170 (DSM 50170, 48 h), 25 µM.
Regarding `CC[C@H](C)[C@H](NC(=O)CNC(=O)[C@@H](N)Cc1c[nH]c2ccccc12)C(=O)N[C@@H](CCCNC(=N)N)C(=O)N[C@@H](CCCNC(=N)N)C(=O)N[C@H](C(=O)N[C@@H](CC(C)C)C(=O)N[C@@H](CCCCN)C(=O)N[C@@H](Cc1ccc(O)cc1)C(=O)NCC(=O)N[C@@H](CCCCN)C(=O)N[C@@H](CCCNC(=N)N)C(=O)N[C@@H](CO)C(=O)N[C@H](CCCCN)C(N)=O)[C@@H](C)CC` [WMR-1] (H-WGIRRILKYGKRS[dK]-NH2), the MIC in the data set on A. xylosoxidans DSM 2402 (DSM 2402, 48 h) is over 50 µM; with S. maltophilia DSM 50170 (DSM 50170, 48 h), over 50 µM.
